Source: the NIST ThermoML archive (doi:10.1007/s10765-007-0223-x)

Test: xn = mol fraction of the nth substance listed
Conditions: 101 kPa, Liquid; for speed of sound: Single path-length method

CCc1ccccc1 [ethylbenzene] + COC(C)(C)C
Conditions | mass density, 315.65 K [kg/m3] | mass density, 318.15 K [kg/m3] | mass density, 320.65 K [kg/m3] | mass density, 323.15 K [kg/m3] | speed of sound, 315.65 K [m/s] | speed of sound, 318.15 K [m/s] | speed of sound, 320.65 K [m/s] | speed of sound, 323.15 K [m/s]
x2 = 0 | 846.964 | 844.741 | 842.518 | 840.306 | – | 1236.1 | 1226.1 | 1216.3
x2 = 0.046 | 841.648 | 839.413 | 837.173 | 834.949 | – | 1224.5 | 1214.5 | 1204.7
x2 = 0.106 | 834.515 | 832.261 | 830.003 | 827.754 | – | 1208.7 | 1198.6 | 1188.8
x2 = 0.212 | 821.909 | 819.612 | 817.315 | 815.028 | – | 1180.5 | 1170.4 | 1160.5
x2 = 0.299 | 811.155 | 808.784 | 806.474 | 804.174 | – | 1155.9 | 1146 | 1136.3
x2 = 0.402 | 798.107 | 795.73 | 793.356 | 791.012 | – | 1127 | 1116.8 | 1106.9
x2 = 0.503 | 786.547 | 784.128 | 781.711 | 779.302 | 1111.9 | 1101.4 | 1091 | 1080.8
x2 = 0.6 | 772.257 | 769.777 | 767.333 | 764.898 | 1079.6 | 1068.9 | 1058.7 | 1048.8
x2 = 0.701 | 758.651 | 756.122 | 753.581 | 751.042 | 1050 | 1039.2 | 1028.4 | 1017.8
x2 = 0.822 | 741.744 | 739.136 | 736.516 | 733.902 | 1012.4 | 1001.4 | 990.46 | 979.73
x2 = 0.899 | 730.538 | 727.875 | 725.199 | 722.521 | 987.36 | 976.23 | 965.11 | 954.17
x2 = 0.948 | 723.249 | 720.551 | 717.839 | 715.125 | 971.33 | 960.13 | 948.99 | 938
